These results are taken from patent US10457682B2, “Small molecules that bind MR1” (OREGON HEALTH & SCIENCE UNIVERSITY, priority 2016, dated 2019).

Entries after “also recorded” stand apart in the source; their conditions may differ. Read-outs that look alike come from different tables or passages of the source.

The target of one assay is hpMR1 (UniProt C1ITJ8+Q95460). The note with it: tandem mass spectrometry; hpMR1-bac, +EC, +MS.
Assay [1] has as its system MR1T cell clone D426 G11. The note with it: literature (Harriff 2016; Eckle 2014); cited from earlier work.
The next assay addresses MR1 (Homo sapiens, UniProt Q95460). Nature of the assay: Binding of small molecule ligands to MR1. An excerpt: 6,7-dimethyl-5-deazalumazine (DZ) is a synthetic compound designed based on the structure and activity of FO and other known mycobacterial ligands for MR1. […] Photolumazines I and III are small molecule secondary metabolites produced by bacteria.
Binding can be detected by any procedure known to one skilled in the art, such as by physical or functional properties including cellular properties. Binding can also be detected by visualization of a label (such as a fluorescent label) conjugated to one of the molecules.
Disclosed herein is work reflecting the diversity of ligands bound by MR1 in the context of infection with different microbes. MR1 ligand diversity is detected by MR1T cells, as MR1 tetramers loaded with multiple bacterial ligands were broadly recognized by MR1T clones with distinct TCR arrangements and by PBMC from a panel of donors. […] While previous work has only identified a few riboflavin metabolites as activating MR1Ts, our results establishes that MR1 samples the broader microbial metabolome similar to how conventional MHC molecules sample the microbial peptidome and CD1 molecules sample microbial lipids and glycolipids.

Another assay concerns MR1T clones. Description: Ability of synthetic ligands to stimulate MR1T clones. The assay is classed as cell-based, human. On the procedure:
(§1) To determine whether riboflavin, FO, PLI, and PLIII were antigens, they were tested for their ability to stimulate MR1T clones. […] (FIGS. 4A, 4B). […] To determine whether riboflavin or FO are also antagonistic, antigen presenting cells (APC) were pre-loaded with riboflavin or FO and then tested for their ability to present antigens from M. smegmatis supernatant (Msm-sup) to MR1Ts. […] PLI and PLIII were each tested for their ability to stimulate two MR1T clones with distinct TCRs.
(§2) FIGS. 4A, 4B, 4C, 4D: MR1T cell responses to synthetic ligands. A-B) MR1T cell clone D426 G11 responses to BEAS-2B cells incubated with FO (A, 10 μM, 30 μM, or 100 μM), or Riboflavin (B, 7.8 μM-500 μM) prior to addition of M. smegmatis supernatant (Msm-s) or PHA. C) MR1 cell clone D481 C7 responses to DC incubated with synthetic PLI, PLIII, RL-6,7,-diMe (DMRL), or RL-6-Me-7-OH (HMRL), at 1.56μM-200μM, or M. smegmatis (Msm), M. smegmatis supernatant (Msm-s), or PHA. D) Panel of MR1T cell clones or an HLA-B45-restricted T cell clone (D466 A10) incubated with 100 μM PLI, PLIII, DMRL, or HMRL.

The subject of assay [2] is MR1T cell clone D426 G11. Description: Blocking of MR1T clone response to M. smegmatis supernatant after pre-loading antigen presenting cells. The assay is classed as cell-based, human. The note with it: for blocking of MR1T clone response to Msm-sup (MAIT cell activation): APC (BEAS-2B) pre-loaded with FO 10-100 μM or riboflavin 7.8-500 μM, then M. smegmatis supernatant. On the procedure:
as §1, §2

In assay [3] the test system is D481_F12 and D481_A9 MR1T cell clones. Description: D481_F12 and D481_A9 MR1T cell clone responses to synthetic ligands. The assay is classed as cell-based, human. Particulars: 100 μM ligand (FIG. 4D). On the procedure:
(§3) Given the striking differences in response between D481_C7 and D426_G11, we postulated that discrete TCR usage could be associated with ligand discrimination. To test this, an expanded panel of TCR diverse MR1T clones was tested for their ability to recognize each antigen. Every clone responded robustly to APC infected with M. smegmatis (FIG. 4D). […] In contrast, the D481_C7 responded to RL-6-Me-7-OH as well as RL-6,7-diMe, PLI, and PLIII. Because TRAV1-2 negative cells were stained with the hpMR1+EC tetramer, we also tested the ability of a recently described TRAV12-2 MR1T cell clone to respond to these ligands.
as §2

Another assay relates to MR1T clone D481_C7. Nature of the assay: MR1T cell clone D481 C7 responses to DC incubated with synthetic ligands. The class given is cell-based, human. The note with it: for response of clone D481_C7: 100 μM ligand (FIG. 4D); for IFN-γ response of clone D481_C7: DC incubated with ligand at 1.56 μM-200 μM (FIG. 4C top). On the procedure: as §1, §3, §2
The test system of assay [4] is D462_E4 TRAV12-2 MR1T cell clone. Description: TRAV12-2 MR1T cell clone D462_E4 responses to synthetic ligands. The class given is cell-based, human. Particulars: 100 μM ligand (FIG. 4D). Here is the method: as §3, §2
The test system of another assay is MR1T clone D426_G11. Description: MR1T cell clone D426_G11 responses to synthetic ligands. The assay is classed as cell-based, human. The note with it: FIG. 4C bottom. On the procedure:
as §1, §2

Sequence of hpMR1 (Q95460 23-201 limits assumed): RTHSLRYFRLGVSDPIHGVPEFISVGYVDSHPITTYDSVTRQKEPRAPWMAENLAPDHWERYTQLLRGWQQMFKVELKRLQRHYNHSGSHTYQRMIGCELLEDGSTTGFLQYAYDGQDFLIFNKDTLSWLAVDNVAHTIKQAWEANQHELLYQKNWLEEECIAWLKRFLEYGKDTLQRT
Sequence of hpMR1 (C1ITJ8 198-289 limits assumed): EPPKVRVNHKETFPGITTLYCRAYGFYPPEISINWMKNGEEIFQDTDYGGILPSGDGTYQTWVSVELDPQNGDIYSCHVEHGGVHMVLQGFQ
Sequence of MR1 (Q95460 23-341): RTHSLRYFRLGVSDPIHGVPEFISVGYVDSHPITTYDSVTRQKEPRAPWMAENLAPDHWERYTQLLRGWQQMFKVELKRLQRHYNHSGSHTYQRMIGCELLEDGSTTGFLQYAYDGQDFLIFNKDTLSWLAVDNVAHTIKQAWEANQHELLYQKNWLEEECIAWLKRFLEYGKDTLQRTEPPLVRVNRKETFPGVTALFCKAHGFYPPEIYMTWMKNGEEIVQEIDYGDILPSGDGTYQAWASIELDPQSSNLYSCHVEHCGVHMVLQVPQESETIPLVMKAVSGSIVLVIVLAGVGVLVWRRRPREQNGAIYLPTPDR
Sequence of MR1 (P61769 21-119 partner): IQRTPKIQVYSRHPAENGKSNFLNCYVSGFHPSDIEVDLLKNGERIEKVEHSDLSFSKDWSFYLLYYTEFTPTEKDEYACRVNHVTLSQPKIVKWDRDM
Protocol for hpMR1: MR1 expressed in cells infected with two distinct microbes recognized by MR1Ts, E. coli and M. smegmatis, were analyzed by flow cytometry, ELISPOT assay, and mass spectrometry.
The presence and relative abundance of known MR1T ligands was assessed.
To further explore the MR1 ligandome, all ligands eluted from hpMR1-bac, +EC, and +MS were evaluated using LCMS. Fold increase was calculated for each ion/ligand in either hpMR1+MS or +EC compared to all other samples and plotted on volcano plots (FIG. 2A).
Global Natural Products Social Molecular Networking (GNPS) was used to assist in the identification of these novel ligands.

Turning to `O=CC=Nc1c(NC[C@H](O)[C@H](O)[C@H](O)CO)[nH]c(=O)[nH]c1=O` [5-OE-RU, 5-(2-oxoethylideneamino)-6-D-ribitylaminouracil], the “presence among ligands eluted from hpMR1 preparations” value (from here on “presence among ligands eluted”) on hpMR1 is reported as “not found in these hpMR1 preparations”.
Consider `Nc1nc2ncc(C=O)nc2c(=O)[nH]1` [6-FP], for which, in the assay with MR1T cell clone D426 G11 [1], the “antagonism of MR1T activation” value is “antagonizes MR1T activation”.
On to `Cc1cc2c(=O)[nH]c(=O)[nH]c2nc1C` [DZ, 6,7-dimethyl-5-deazalumazine], for which the “binding to MR1 / MR1 ligand” value on MR1 is given as “binds MR1”. Further, in the assay on MR1T clones, the “ability to stimulate MR1T clones (MR1T cell activation)” value (from here on “ability to stimulate MR1T clones”) is on record as “activates MR1 restricted T cells”.
As for `O=c1nc2n(C[C@H](O)[C@H](O)[C@H](O)CO)c3cc(O)ccc3cc-2c(=O)[nH]1` [FO], the “binding to MR1 / MR1 ligand” value on MR1 is given as “binds MR1; also recorded: confirmed these molecules as novel MR1 ligands”. The “blocking of MR1T clone response to Msm-sup (MAIT cell activation)” value in the assay with MR1T cell clone D426 G11 [2] is “blocks the activation of MAIT cells; also recorded: blocked the MR1T clone response to Msm-sup”. For the same compound, the “antagonist potency relative to riboflavin (amount required to reach 50% inhibition)” value in the assay with MR1T cell clone D426 G11 [2] (pre-incubation of APC, response to Msm-sup) was “less FO was required to reach 50% inhibition”. Also, the “ability to stimulate MR1T clones” value with MR1T clones is given as “Neither riboflavin nor FO was capable of MR1T cell activation”.
Turning to `O=c1nc2n(C[C@H](O)[C@H](O)[C@H](O)CO)c(O)c(-c3c[nH]c4ccccc34)nc-2c(=O)[nH]1` [PLIII], the “recognition by D481_F12 and D481_A9 MR1T cell clones” value (shortened to “recognition”) in assay [3] is on record as “modest or no recognition”. Also, the “binding to MR1 / MR1 ligand” value is “confirmed these molecules as novel MR1 ligands” at MR1 and “bind MR1” at MR1 (listed as Photolumazine III). Also, the “response of clone D481_C7” value in the assay on MR1T clone D481_C7 is “responded”. Besides, the “IFN-γ response of clone D481_C7” value in the assay on MR1T clone D481_C7 is recorded as “potent activating ligands similar to RL-6,7-diMe”. Besides, in assay [4], the “response of D462_E4 TRAV12-2 MR1T cell clone” value was “comparable responses to RL-6-Me-7-OH and PLI that were greater than PLIII”. Also, the “ability to stimulate MR1T clones” value was “antigenic” in the assay on MR1T clones and “activated MR1 restricted T cells” with MR1T clones (listed as Photolumazine III). Moreover, the “IFN-γ response of clone D426_G11” value in the assay on MR1T clone D426_G11 is “only modest responses”.
Consider `O=C(O)CCc1nc2c(=O)[nH]c(=O)nc-2n(C[C@H](O)[C@H](O)[C@H](O)CO)c1O` [PLI], for which, in assay [3], the “recognition” value is on record as “modest or no recognition”. Besides, the “binding to MR1 / MR1 ligand” value on MR1 was “confirmed these molecules as novel MR1 ligands”; on MR1 (listed as Photolumazine I), “bind MR1”. Moreover, the “response of clone D481_C7” value in the assay on MR1T clone D481_C7 was “responded”. In addition, in the assay on MR1T clone D481_C7, the “IFN-γ response of clone D481_C7” value is “potent activating ligands similar to RL-6,7-diMe”. For the same compound, the “presence among ligands eluted” value on hpMR1 is “unique to hpMR1+MS”. Also, the “response of D462_E4 TRAV12-2 MR1T cell clone” value in assay [4] was “comparable responses to RL-6-Me-7-OH and PLI that were greater than PLIII”. Also, the “ability to stimulate MR1T clones” value was “antigenic” with MR1T clones and “activated MR1 restricted T cells” with MR1T clones (listed as Photolumazine I). Further, the “IFN-γ response of clone D426_G11” value with MR1T clone D426_G11 is reported as “only modest responses”.
As for `Cc1nc2c(=O)[nH]c(=O)nc-2n(C[C@H](O)[C@H](O)[C@H](O)CO)c1C` [RL-6,7-diMe, reference compound], the “recognition” value in [3] is reported as “responded”. In the assay on MR1T clone D481_C7, the “response of clone D481_C7” value is “responded”. Besides, the “presence among ligands eluted” value on hpMR1 is reported as “not found in these hpMR1 preparations”. In addition, in assay [4], the “response of D462_E4 TRAV12-2 MR1T cell clone” value was “did not respond”.
As to `Cc1nc2c(=O)[nH]c(=O)nc-2n(C[C@H](O)[C@H](O)[C@H](O)CO)c1O` [RL-6-Me-7-OH, reference compound], the “recognition” value in assay [3] is on record as “modest or no recognition”. For the same compound, the “response of clone D481_C7” value in the assay with MR1T clone D481_C7 is on record as “responded”. Besides, in assay [4], the “response of D462_E4 TRAV12-2 MR1T cell clone” value was “comparable responses to RL-6-Me-7-OH and PLI that were greater than PLIII”.
Turning to `Cc1cc2nc3c(=O)[nH]c(=O)nc-3n(C[C@H](O)[C@H](O)[C@H](O)CO)c2cc1C` [riboflavin, reference compound], at MR1, the “binding to MR1 / MR1 ligand” value is on record as “confirmed these molecules as novel MR1 ligands”. Further, the “blocking of MR1T clone response to Msm-sup (MAIT cell activation)” value in the assay on MR1T cell clone D426 G11 [2] was “blocked the MR1T clone response to Msm-sup”. For the same compound, the “ability to stimulate MR1T clones” value in the assay with MR1T clones is “Neither riboflavin nor FO was capable of MR1T cell activation”.
